One assay concerns the target rhSYK (Homo sapiens, UniProt P43405). Briefly: biochemical.
The target in assay [1] is recombinant human SYK (GST-hSYK fusion protein) (Homo sapiens, UniProt P43405).
From the text: Homogeneous Time-Resolved Fluorescence (HTRF) Assay for the Recombinant Human SYK Enzyme:
Where [2] appears, read: read-out: rhSYK Activity, Table 33B.
The mark [3] stands for this setting: read-out: rhSYK Activity, Table 33C.
Setting [4] is: read-out: rhSYK Activity, Table 54D.
[5] abbreviates: read-out: rhSYK Activity (IC50), recombinant human GST-SYK 5 pM, ATP 25 μM, biotinylated substrate peptide 250 nM, HTRF, 10-dose titration.
Setting [6] is: read-out: rhSYK Activity, Table 108A.
Setting [7] is: read-out: rhSYK Activity, Table 113A.
Setting [8] is: read-out: rhSYK Activity, Table 113B.

Read-outs that look alike come from different tables or passages of the source.

For `Cc1cc(Nc2nccc(C(F)(F)F)n2)cc(-c2cnc(C(C)(O)c3ccc(C(N)=O)cc3)s2)c1` (single isomer, unassigned) [Example 117-20], on rhSYK, the IC50 was less than 100 nM.
As to `Cc1cc(Nc2nccc(C(F)(F)F)n2)cc(-c2cnc(C3(O)CCCC(C(=O)O)C(C)(C)C3)s2)c1` (centres unmarked) [Example 33B-9], the IC50 in assay [1] (setting [2]) is less than 100 nM.
Still for that read-out and setting: the value for `Cc1cc(Nc2nccc(C(F)(F)F)n2)cc(-c2cnc(C3(O)CCCC(C(=O)O)C(C)(C)C3)s2)c1` (centres unmarked) [Example 33B-10] was less than 100 nM; that for `Cc1cc(Nc2nccc(C(F)(F)F)n2)cc(-c2cnc(C3(O)CCCC(C(=O)O)C(C)(C)C3)s2)c1` (centres unmarked) [Example 33B-12] was less than 100 nM; that for `Cc1cc(Nc2nccc(C)n2)cc(-c2cnc(C3(O)CCC(C(=O)O)C(C)C3)s2)c1` (centres unmarked) [Example 33B-32] was less than 100 nM.
Take `Cc1cc(Nc2nccc(C)n2)cc(-c2cnc(C3(O)CCC(C(=O)O)C(C(C)C)C3)s2)c1` (centres unmarked) [Example 33B-34]: the IC50 in assay [1] (setting [2]) was less than 100 nM.
Take `Cc1cc(Nc2nccc(C)n2)cc(-c2cnc(C3(O)CCC(C(=O)O)C(C(C)C)C3)s2)c1` (centres unmarked) [Example 33B-36]: in assay [1] (setting [2]), the IC50 was less than 100 nM.
As for `Cc1cc(Nc2nccc(C(F)(F)F)n2)cc(-c2cnc(C3(O)C[C@@H]4C(C(=O)O)[C@@H]4C3)s2)c1` (some centres unmarked) [Example 33C-10], the IC50 in assay [1] (setting [3]) was less than 100 nM.
Consider `CCOC(=O)C1[C@H]2CC(O)(c3ncc(-c4cc(C)cc(Nc5nccc(C(F)(F)F)n5)c4)s3)C[C@@H]12` (some centres unmarked) [Example 33C-12], for which the IC50 in assay [1] (setting [3]) is less than 100 nM.
Consider `Cc1cc(Nc2nccc(C)n2)cc(-c2cnc(C3(O)CC4CCC3CC4C(=O)O)s2)c1` (centres unmarked) [Example 33C-19], for which the IC50 in assay [1] (setting [3]) is less than 100 nM.
Regarding `COC(=O)C1CCC(c2ncc(-c3cccc(Nc4nccc(C(F)(F)F)n4)c3)s2)CC1` (centres unmarked) [Example 36A-5], the IC50 in assay [1] (read-out: rhSYK Activity, Table 36A) lay within 100 to 1000 nM.
Take `Cc1cc(Nc2nccc(C(C)C)n2)cc(-c2cnc(C3(O)CCCN(C(=O)C(C)O)CC3)s2)c1` (centres unmarked) [Example 54D-3]: in assay [1] (setting [4]), the IC50 was less than 100 nM.
Turning to `Cc1cc(Nc2nccc(C(F)(F)F)n2)cc(-c2cnc(C3(O)CCCN(C(=O)c4cnn[nH]4)CC3)s2)c1` (centres unmarked) [Example 54D-35], the IC50 in assay [1] (setting [4]) was less than 100 nM.
On the same count and under the same terms, the value for `Cc1cc(Nc2nccc(C(F)(F)F)n2)cc(-c2cnc(C3(O)CCCN(C(=O)c4n[nH]c(=O)[nH]4)CC3)s2)c1` (centres unmarked) [Example 54D-63] was less than 100 nM; that for `Cc1cc(Nc2nccc(C(F)(F)F)n2)cc(-c2cnc(C3(O)CCCN(C(=O)CC4CCOC4)CC3)s2)c1` (centres unmarked) [Example 54D-69] was less than 100 nM.
With `Cc1cc(Nc2nccc(C(F)(F)F)n2)cc(-c2cnc(C3(O)CCCN(C(=O)Cc4n[nH]c(=O)[nH]4)CC3)s2)c1` (centres unmarked) [Example 54D-94], the IC50 in assay [1] (setting [4]) is less than 100 nM.
For `Cc1cc(Nc2nccc(C(F)(F)F)n2)cc(-c2cnc(C3(O)CCC(NC(=O)CC4CCCO4)CC3)s2)c1` (centres unmarked) [Example 54E-19], the IC50 in assay [1] (read-out: rhSYK Activity, Table 54E) was less than 100 nM.
Take `Cc1cc(Nc2nccc(C(F)(F)F)n2)cc(-c2cnc(C(=O)NCC(O)CO)s2)c1` (centres unmarked) [Example 87A-3]: the IC50 in assay [1] (setting [5]) was less than 100 nM.
Same read-out and setting: the result for `Cc1cc(Nc2nccc(C(F)(F)F)n2)cc(-c2cnc(C(=O)NC[C@@H](O)CO)s2)c1` [Example 87A-4] reads less than 100 nM; that for `COC(=O)[C@H]1C[C@@H](O)CN1C(=O)c1ncc(-c2cc(C)cc(Nc3nccc(C(F)(F)F)n3)c2)s1` [Example 87B-23], less than 100 nM.
As for `Cc1cc(Nc2nccc(C(F)(F)F)n2)cc(-c2cnc(C(=O)N3CC(O)CC3C(=O)O)s2)c1` (centres unmarked) [Example 87B-24], the IC50 in assay [1] (setting [5]) was less than 100 nM.
Regarding `Cc1cc(Nc2nccc(OC3CNC3)n2)cc(-c2cnc(C3(O)CCC3)s2)c1` [Example 94A-28], the IC50 in assay [1] (setting [5]) is less than 100 nM.
On the same count and under the same terms, the result for `Cc1cc(Nc2nccc(OC3CCNCC3F)n2)cc(-c2cnc(C(C)(O)C(F)(F)F)s2)c1` (centres unmarked) [Example 94B-7] reads less than 100 nM; that for `Cc1cc(Nc2nccc(O[C@@H]3CCNC3)n2)cc(-c2cnc(C(C)(O)C(F)(F)F)s2)c1` (some centres unmarked) [Example 94B-8], less than 100 nM; that for `Cc1cc(Nc2nc(C)cc(C)n2)cc(-c2cnc(C3(O)CCC(C(=O)O)C(C)(C)C3)s2)c1` (centres unmarked) [Example 100A-10], 100 to 1000 nM.
With `Cc1cc(Nc2nccc(OC3CCCNCC3)n2)cc(-c2cnc(C3(O)CCC3)s2)c1` (centres unmarked) [Example 108A-10], the IC50 in assay [1] (setting [6]) is less than 100 nM.
On to `Cc1cc(Nc2nccc(OC3CCCNCC3)n2)cc(-c2cnc(C3(O)CCC3)s2)c1` (centres unmarked) [Example 108A-11], for which, in assay [1] (setting [6]), the IC50 is less than 100 nM.
As to `Cc1cc(Nc2nccc(C)n2)cc(-c2cnc(C3(O)CCC(C(=O)O)C(C)C3)s2)c1` (centres unmarked) [Example 113A-5], the IC50 in assay [1] (setting [7]) was less than 100 nM.
On the same count and under the same terms, the result for `Cc1cc(Nc2nccc(C)n2)cc(-c2cnc(C3(O)CCC(C(=O)O)C(C)C3)s2)c1` (centres unmarked) [Example 113A-6] reads less than 100 nM; that for `Cc1cc(Nc2nccc(C)n2)cc(-c2cnc(C3(O)CCC(C(=O)O)C(C)C3)s2)c1` (centres unmarked) [Example 113A-7], less than 100 nM; that for `CCc1ccnc(Nc2cc(C)cc(-c3cnc(C4(O)CCC(C(=O)O)C(C)C4)s3)c2)n1` (centres unmarked) [Example 113A-15], less than 100 nM.
With `Cc1ccnc(Nc2cc(-c3cnc(C4(O)CCC(C(=O)O)C(C)C4)s3)cc(C3CC3)c2)n1` (centres unmarked) [Example 113A-24], the IC50 in assay [1] (setting [7]) is less than 100 nM.
On the same count and under the same terms, the value for `CCOC(=O)C1CCC(O)(c2ncc(-c3cc(C)cc(Nc4nccc(CC)n4)c3)s2)CC1C` (centres unmarked) [Example 113A-32] was less than 100 nM.
Take `COCCOc1ccnc(Nc2cc(C)cc(-c3cnc(C4(O)CCC(C(=O)O)C(C)C4)s3)c2)n1` (centres unmarked) [Example 113A-39]: in assay [1] (setting [7]), the IC50 was less than 100 nM.
On to `COCCCOc1ccnc(Nc2cc(C)cc(-c3cnc(C4(O)CCC(C(=O)O)C(C)C4)s3)c2)n1` (centres unmarked) [Example 113A-41], for which, in assay [1] (setting [7]), the IC50 was less than 100 nM.
For `CCOC(=O)C1CCC(O)(c2ncc(-c3cc(C)cc(Nc4nccc(OCCOC)n4)c3)s2)CC1C` (centres unmarked) [Example 113A-44], in assay [1] (setting [7]), the IC50 was less than 100 nM.
As for `CCOC(=O)C1CCC(O)(c2ncc(-c3cc(C)cc(Nc4nccc(OCCCOC)n4)c3)s2)CC1C` (centres unmarked) [Example 113A-48], in assay [1] (setting [7]), the IC50 is less than 100 nM.
`Cc1cc(Nc2nccc(C)n2)cc(-c2cnc(C3(O)CCC(C(=O)O)C(C)C3C)s2)c1` (centres unmarked) [Example 113A-67]: in assay [1] (setting [7]), the IC50 is less than 100 nM.
As to `Cc1cc(Nc2nccc(C)n2)cc(-c2cnc(C3(O)CCC(C(=O)O)C(C)C3C)s2)c1` (centres unmarked) [Example 113A-68], the IC50 in assay [1] (setting [7]) was less than 100 nM.
Take `Cc1cc(Nc2nccc(C)n2)cc(-c2cnc(C3(O)CCC(C(=O)O)C(C)C3C)s2)c1` (centres unmarked) [Example 113A-69]: the IC50 in assay [1] (setting [7]) was less than 100 nM.
As for `CCOC(=O)C1CCC(O)(c2ncc(-c3cc(C)cc(Nc4nccc(C)n4)c3)s2)C(C)C1C` (centres unmarked) [Example 113A-71], in assay [1] (setting [7]), the IC50 was less than 100 nM.
Same read-out and setting: the value for `CCOC(=O)C1CCC(O)(c2ncc(-c3cc(C)cc(Nc4nccc(C)n4)c3)s2)C(C)C1C` (centres unmarked) [Example 113A-72] was less than 100 nM; that for `CCOC(=O)C1CCC(O)(c2ncc(-c3cc(C)cc(Nc4nccc(C)n4)c3)s2)C(C)C1C` (centres unmarked) [Example 113A-73] was less than 100 nM; that for `Cc1cc(Nc2nccc(C)n2)cc(-c2cnc(C3(O)CCC(C(=O)O)CC3C)s2)c1` (centres unmarked) [Example 113A-81] was less than 100 nM.
Turning to `Cc1cc(Nc2nccc(C)n2)cc(-c2cnc(C3(O)CCC(C(=O)O)CC3C)s2)c1` (centres unmarked) [Example 113A-82], in assay [1] (setting [7]), the IC50 was less than 100 nM.
Take `Cc1cc(Nc2nccc(C)n2)cc(-c2cnc(C3(O)CCC(C(=O)O)CC3C)s2)c1` (centres unmarked) [Example 113A-83]: the IC50 in assay [1] (setting [7]) was less than 100 nM.
For the molecule `Cc1cc(Nc2nccc(C)n2)cc(-c2cnc(C3(O)CCC(C(=O)O)CC3C)s2)c1` (centres unmarked) [Example 113A-84], the IC50 in assay [1] (setting [7]) is less than 100 nM.
Still for that read-out and setting: the value for `Cc1cc(Nc2nccc(C)n2)cc(-c2cnc(C3(O)CCC(C(=O)O)CC3C)s2)c1` (centres unmarked) [Example 113A-85] was less than 100 nM; that for `Cc1cc(Nc2nccc(C)n2)cc(-c2cnc(C3(O)CCC(C(=O)O)CC3C)s2)c1` (centres unmarked) [Example 113A-86] was less than 100 nM.
Still for that read-out and setting: the result for `Cc1cc(Nc2nccc(C)n2)cc(-c2cnc(C3(O)CCC(C(=O)O)CC3O)s2)c1` (centres unmarked) [Example 113A-91] reads less than 100 nM.
In the case of `Cc1cc(Nc2nccc(C)n2)cc(-c2cnc(C3(O)CC(C)C(C(=O)O)CC3C)s2)c1` (centres unmarked) [Example 113B-1], in assay [1] (setting [8]), the IC50 is less than 100 nM.
Still for that read-out and setting: the result for `Cc1cc(Nc2nccc(C)n2)cc(-c2cnc(C3(O)CC(C)C(C(=O)O)CC3C)s2)c1` (centres unmarked) [Example 113B-2] reads less than 100 nM; that for `Cc1cc(Nc2nccc(C)n2)cc(-c2cnc(C3(O)CC(C)C(C(=O)O)CC3C)s2)c1` (centres unmarked) [Example 113B-4], less than 100 nM.
Consider `Cc1cc(Nc2nccc(C)n2)cc(-c2cnc(C3(O)CC(C)C(C(=O)O)CC3C)s2)c1` (centres unmarked) [Example 113B-5], for which the IC50 in assay [1] (setting [8]) was less than 100 nM.
As for `Cc1cc(Nc2nccc(C)n2)cc(-c2cnc(C3(O)CC(C)C(C(=O)O)CC3C)s2)c1` (centres unmarked) [Example 113B-6], in assay [1] (setting [8]), the IC50 was less than 100 nM.
On the same count and under the same terms, the result for `Cc1cc(Nc2nccc(C(F)(F)F)n2)cc(-c2cnc(C3(O)CC(C)C(C(=O)O)CC3C)s2)c1` (centres unmarked) [Example 113B-13] reads less than 100 nM; that for `Cc1cc(Nc2nccc(C(F)(F)F)n2)cc(-c2cnc(C3(O)CC(C)C(C(=O)O)CC3C)s2)c1` (centres unmarked) [Example 113B-14], less than 100 nM.
Take `Cc1cc(Nc2nccc(C(F)(F)F)n2)cc(-c2cnc(C3(O)CC(C)C(C(=O)O)CC3C)s2)c1` (centres unmarked) [Example 113B-15]: in assay [1] (setting [8]), the IC50 is less than 100 nM.
`Cc1cc(Nc2nccc(C(F)(F)F)n2)cc(-c2cnc(C3(O)CC(C)C(C(=O)O)CC3C)s2)c1` (centres unmarked) [Example 113B-16]: in assay [1] (setting [8]), the IC50 was less than 100 nM.
Turning to `Cc1cc(Nc2nccc(C)n2)cc(-c2cnc(C3(O)CC(C)C(C(=O)O)C(C)C3)s2)c1` (centres unmarked) [Example 113B-22], in assay [1] (setting [8]), the IC50 was less than 100 nM.
As to `Cc1cc(Nc2nccc(C(F)(F)F)n2)cc(-c2cnc(C3(O)CC(C)C(C(=O)O)C(C)C3)s2)c1` (centres unmarked) [Example 113B-25], the IC50 in assay [1] (setting [8]) was less than 100 nM.
For `Cc1cc(Nc2nccc(C(F)(F)F)n2)cc(-c2cnc(C(C)(O)c3ccc(C(=O)O)cn3)s2)c1` (centres unmarked) [Example 113D-6], in assay [1] (read-out: rhSYK Activity, Table 113D, upper part), the IC50 was less than 100 nM.

Values taken from US8551984B2, “Aminopyrimidines as SYK inhibitors” (Merck Sharp & Dohme Corp., priority 2009, dated 2013).
